Measured values reported in ChEMBL document CHEMBL1201862, “PubChem BioAssay data set” (2004).
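Five compound concentrations were applied to cells in 96-well plates for 48 hours; endpoints were derived by simple linear interpolation of the resulting dose-response curve. The concentration for 50% growth inhibition is given as GI50.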 Active and inactive are the calls of the source. Rule as the data show it: active = GI50 up to about 1.1 µM and inactive = higher.

Legend:
Experiment in all cases: growth of human tumour cells (NCI), 48 h
A549 = system: A549
LOX IMVI = system: LOX IMVI
NCI/ADR-RES = system: NCI/ADR-RES
PC-3 = system: PC-3
SK-MEL-28 = system: SK-MEL-28
SF-539 = system: SF-539
MDA-MB-435 = system: MDA-MB-435
HCC 2998 = system: HCC 2998
A498 = system: A498
HCT-15 = system: HCT-15
SK-OV-3 = system: SK-OV-3
MOLT-4 = system: MOLT-4
HCT-116 = system: HCT-116
SR = system: SR
OVCAR-5 = system: OVCAR-5
CCRF-CEM = system: CCRF-CEM
OVCAR-8 = system: OVCAR-8
DU-145 = system: DU-145
MCF7 = system: MCF7
HOP-92 = system: HOP-92

SMILES	GI50 (A549)	GI50 (LOX IMVI)	GI50 (NCI/ADR-RES)	GI50 (PC-3)	GI50 (SK-MEL-28)	GI50 (SF-539)	GI50 (MDA-MB-435)	GI50 (HCC 2998)	GI50 (A498)	GI50 (HCT-15) [µM]	GI50 (SK-OV-3)	GI50 (MOLT-4)	GI50 (HCT-116)	GI50 (SR)	GI50 (OVCAR-5)	GI50 (CCRF-CEM)	GI50 (OVCAR-8)	GI50 (DU-145)	GI50 (MCF7)	GI50 (HOP-92)
O=c1c2ccccc2c2c1c1c3ccccc3c(=O)c1c1c3ccccc3c(=O)c21	> 100 µM (inactive)	> 100 µM (inactive)	> 100 µM (inactive)	> 100 µM (inactive)	> 100 µM (inactive)	> 100 µM (inactive)	> 100 µM (inactive)	> 100 µM (inactive)	> 100 µM (inactive)	> 100	> 100 µM (inactive)	> 100 µM (inactive)	> 100 µM (inactive)	> 100 µM (inactive)	> 100 µM (inactive)	> 100 µM (inactive)	> 100 µM (inactive)	> 100 µM (inactive)	> 100 µM (inactive)	
CCC1([N+](=O)[O-])CC2C=CC1C2 (stereo not drawn)	> 100 µM (inactive)	> 100 µM (inactive)	> 100 µM (inactive)	> 100 µM (inactive)	> 100 µM (inactive)	> 100 µM (inactive)	> 100 µM (inactive)		> 100 µM (inactive)	> 100	> 100 µM (inactive)	> 100 µM (inactive)	> 100 µM (inactive)	> 100 µM (inactive)	> 100 µM (inactive)	> 100 µM (inactive)	> 100 µM (inactive)	> 100 µM (inactive)	> 100 µM (inactive)	62.7 µM (inactive)
CCOP(=O)(OCC)/C(=C/n1c(=S)[nH]c2ccccc21)C(=O)OC	> 100 µM (inactive)	> 100 µM (inactive)	> 100 µM (inactive)	> 100 µM (inactive)	> 100 µM (inactive)	> 100 µM (inactive)	> 100 µM (inactive)	51.9 µM (inactive)	> 100 µM (inactive)	11.7	> 100 µM (inactive)	> 100 µM (inactive)	> 100 µM (inactive)	> 100 µM (inactive)	> 100 µM (inactive)	> 100 µM (inactive)	> 100 µM (inactive)	> 100 µM (inactive)	> 100 µM (inactive)	
CC1=NN2CCC(=O)N=C2S1	> 100 µM (inactive)	> 100 µM (inactive)	> 100 µM (inactive)	> 100 µM (inactive)	> 100 µM (inactive)	> 100 µM (inactive)	> 100 µM (inactive)			> 100	> 100 µM (inactive)	> 100 µM (inactive)	> 100 µM (inactive)	> 100 µM (inactive)	> 100 µM (inactive)	> 100 µM (inactive)	> 100 µM (inactive)	> 100 µM (inactive)	> 100 µM (inactive)	> 100 µM (inactive)
COc1ccc2c(c1)/C(=C(\C(Cl)=C(Cl)Cl)[N+](=O)[O-])N2	> 100 µM (inactive)	76.4 µM (inactive)	79.8 µM (inactive)	72.1 µM (inactive)	> 100 µM (inactive)		51.2 µM (inactive)	> 100 µM (inactive)	92.7 µM (inactive)	> 100	> 100 µM (inactive)	24.2 µM (inactive)	> 100 µM (inactive)	11 µM (inactive)	> 100 µM (inactive)	31.1 µM (inactive)	92.5 µM (inactive)	> 100 µM (inactive)	> 100 µM (inactive)	> 100 µM (inactive)
CN(C)CC[N+](C)(C)[BH2-]C(O)O	> 100 µM (inactive)	> 100 µM (inactive)	> 100 µM (inactive)	> 100 µM (inactive)	> 100 µM (inactive)	> 100 µM (inactive)	> 100 µM (inactive)	> 100 µM (inactive)	> 100 µM (inactive)	> 100		> 100 µM (inactive)	> 100 µM (inactive)	> 100 µM (inactive)	> 100 µM (inactive)	> 100 µM (inactive)		> 100 µM (inactive)	> 100 µM (inactive)	> 100 µM (inactive)
COc1ccc(/N=N/c2c(C)c(C#N)c(=S)n(C3OC(COC(C)=O)C(OC(C)=O)C(OC(C)=O)C3OC(C)=O)c2-c2ccccc2)cc1 (stereo not drawn)	8.18 µM (inactive)	5.42 µM (inactive)	3.39 µM (inactive)	5.98 µM (inactive)	7.98 µM (inactive)	> 10 µM (inactive)	10.3 µM (inactive)	23.4 µM (inactive)	1.5 µM (inactive)	14.9		3.08 µM (inactive)	4.32 µM (inactive)	4.07 µM (inactive)	13.2 µM (inactive)	4.94 µM (inactive)		7.03 µM (inactive)	4.62 µM (inactive)	4.01 µM (inactive)
Cc1ncc(CSc2ccccc2N)c(CO)c1O	> 100 µM (inactive)	> 100 µM (inactive)	> 100 µM (inactive)	> 100 µM (inactive)	> 100 µM (inactive)	> 100 µM (inactive)	> 100 µM (inactive)		> 100 µM (inactive)	> 100	> 100 µM (inactive)	> 100 µM (inactive)	> 100 µM (inactive)	> 100 µM (inactive)	> 100 µM (inactive)		> 100 µM (inactive)	> 100 µM (inactive)	> 100 µM (inactive)	> 100 µM (inactive)
